Consider three compounds from patent US10206394B2, “Herbicidal compounds” (Syngenta Participations AG, priority 2014, dated 2019).

Like-named read-outs stand apart in the source and are kept apart here.

Common to all, as to type: in vivo
The subject of data set [1] is Winter Wheat variety 'Hereward'. Kind of data set: Glasshouse assay for crop safety, post-emergence, +/- safener cloquintocet-mexyl (CQC), percentage phytotoxicity. Particulars: 250 g/ha, evaluated after 13 days, 100=total damage, 0=no damage; for Post-emergence Crop Selectivity, percentage phytotoxicity, Wheat +CQC: with safener cloquintocet-mexyl (CQC) seed treatment 0.5 g/kg seed; for Post-emergence Crop Selectivity, percentage phytotoxicity, Wheat − CQC: without safener cloquintocet-mexyl (CQC).

The test system of the next data set is Avena fatua (AVEFA). Kind of data set: Glasshouse assay for herbicidal activity (pre- and post-emergence), percentage phytotoxicity. Particulars: Avena fatua, Rate 250 g/ha, 100%=total damage, 0%=no damage. The method in brief:
(§1)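 Percent injury was estimated by eye on a scale where 0% means no damage and 100% complete damage. Ratings came 15 DAA post-emergence and 20 DAA pre-emergence, with plants held under 16 h light and 65% humidity at 24/18 °C or 20/16 °C day/night.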

Another data set concerns Lolium perenne (LOLPE). Described as above. To be noted: Lolium perenne, Rate 250 g/ha, 100%=total damage, 0%=no damage. The method in brief:
as §1

Data set [2] relates to Echinochloa crus-galli (ECHCG). Described as above. Particulars: Echinochloa crus-galli, Rate 250 g/ha, 100%=total damage, 0%=no damage. In short, it runs like this: as §1
In data set [3] the test system is Alopecurus myosuroides (ALOMY). The data set is described as above. Particulars: Alopecurus myosuroides, Rate 250 g/ha, 100%=total damage, 0%=no damage. The method in brief:
as §1

Where [4] appears, read: post-emergence, 360 h, post-emergence, assessed visually 15 DAA, read-out: Post-emergence herbicidal activity (percentage phytotoxicity) AVEFA POST.
[5] abbreviates: pre-emergence, 480 h, pre-emergence, assessed visually 20 DAA, read-out: Pre-emergence herbicidal activity (percentage phytotoxicity) AVEFA PRE.
Setting [6] is: post-emergence, 360 h, post-emergence, assessed visually 15 DAA, read-out: Post-emergence herbicidal activity (percentage phytotoxicity) LOLPE POST.
Where [7] appears, read: pre-emergence, 480 h, pre-emergence, assessed visually 20 DAA, read-out: Pre-emergence herbicidal activity (percentage phytotoxicity) LOLPE PRE.
The mark [8] stands for this setting: post-emergence, 360 h, post-emergence, assessed visually 15 DAA, read-out: Post-emergence herbicidal activity (percentage phytotoxicity) ECHCG POST.
Setting [9] is: pre-emergence, 480 h, pre-emergence, assessed visually 20 DAA, read-out: Pre-emergence herbicidal activity (percentage phytotoxicity) ECHCG PRE.
Setting [10] is: post-emergence, 360 h, post-emergence, assessed visually 15 DAA, read-out: Post-emergence herbicidal activity (percentage phytotoxicity) ALOMY POST.
Setting [11] is: pre-emergence, 480 h, pre-emergence, assessed visually 20 DAA, read-out: Pre-emergence herbicidal activity (percentage phytotoxicity) ALOMY PRE.

`Cc1cc(-c2ncc(F)cn2)cc(C)c1C1C(=O)CC(CC(=O)NCc2cccc(Cl)c2)C1=O` (stereo not drawn) [Compound A138]: the “Post-emergence Crop Selectivity, percentage phytotoxicity, Wheat +CQC” value in data set [1] turned out to be 40%. In data set [1], the “Post-emergence Crop Selectivity, percentage phytotoxicity, Wheat − CQC” value came to 70%. Moreover, the pest or weed control at 250 g/ha (in the data set on Avena fatua (AVEFA) (setting [4]); with Avena fatua (AVEFA) (setting [5]); in the data set on Lolium perenne (LOLPE) (setting [6]); with Lolium perenne (LOLPE) (setting [7]); in data set [2] (setting [8]); in data set [2] (setting [9])) was 100% in each case. Also, the pest or weed control at 250 g/ha in data set [3] (setting [10]) and in data set [3] (setting [11]) was 90% each time.

In the case of `Cc1cc(-c2ncc(Cl)cc2F)cc(C)c1C1C(=O)CC(CC(=O)NC(C)(C)C)C1=O` (stereo not drawn) [Compound A39, N-tert-butyl-2-[3-[4-(5-chloro-3-fluoro-2-pyridyl)-2,6-dimethyl-phenyl]-2,4-dioxo-cyclopentyl]acetamide], the “Post-emergence Crop Selectivity, percentage phytotoxicity, Wheat +CQC” value in data set [1] is 50%. The “Post-emergence Crop Selectivity, percentage phytotoxicity, Wheat − CQC” value in data set [1] worked out at 80%. In addition, the pest or weed control at 250 g/ha (in the data set on Avena fatua (AVEFA) (setting [4]); in the data set with Avena fatua (AVEFA) (setting [5]); with Lolium perenne (LOLPE) (setting [6]); with Lolium perenne (LOLPE) (setting [7]); in data set [2] (setting [8]); in data set [2] (setting [9])) was 100% throughout. Also, the pest or weed control at 250 g/ha in data set [3] (setting [10]) and in data set [3] (setting [11]) was 100% in each case.

As for `Cc1cc(-c2ncc(F)cc2F)cc(C)c1C1C(=O)CC(CC(=O)NC(C)(C)C)C1=O` (stereo not drawn) [Compound A85], the “Post-emergence Crop Selectivity, percentage phytotoxicity, Wheat +CQC” value in data set [1] was found to be 10%. For the same compound, the “Post-emergence Crop Selectivity, percentage phytotoxicity, Wheat − CQC” value in data set [1] was 80%. For the same compound, the pest or weed control at 250 g/ha in the data set with Avena fatua (AVEFA) (setting [4]) came to 100%; with Avena fatua (AVEFA) (setting [5]), 80%; in the data set on Lolium perenne (LOLPE) (setting [6]), 90%; with Lolium perenne (LOLPE) (setting [7]), 100%; in data set [2] (setting [8]), 100%; in data set [2] (setting [9]) it was 90%. Moreover, the pest or weed control at 250 g/ha in data set [3] (setting [10]) and in data set [3] (setting [11]) was 100% each time.
